The values that follow come from patent US20170121344A1 (Siga Technologies, Inc., priority 2009, published 2017).

Read-outs that look alike come from different tables or passages of the source. Where only a bound is given, the exact number is not on record here.

One assay deals with DENV-1. The assay can be described thus: Viral yield assay against DENV-1 in Vero cells. The conditions noted are these: Dengue virus. The class given is cell-based. As to the method:
(§1) Compounds that were active in the primary screen were tested for activity in viral yield assays. […] Vero cells in 12-well plates were infected with dengue-2 virus at a multiplicity of infection (MOI) of 0.1, treated with compound (or DMSO as a control), incubated at 37° C., harvested 48 hours post infection and titered on Vero cells as described above. The EC50 was calculated through ExcelFit. Activities against other serotypes of dengue virus were determined in a similar way.

Assay [1] deals with Dengue-2 (Strain New Guinea C). Description: Viral yield assay against Dengue-2 in Vero cells. The class given is cell-based, Dengue virus. The conditions noted are these: Dengue virus, read-out: Activity (EC50 in μM) DENV-2. In a few lines:
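Infect Vero cells with virus (MOI 0.1), add compound or DMSO, incubate at 37° C, collect progeny at 48 hours post infection, then titrate on Vero cells to obtain EC50.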

The next assay has as its system DENV-3. Description: Viral yield assay against DENV-3 in Vero cells. The class given is cell-based. The conditions noted are these: Dengue virus. Here is the method: as §1
A further assay deals with DENV-4. The assay can be described thus: Viral yield assay against DENV-4 in Vero cells. The class given is cell-based. The following applies: Dengue virus. Here is the method:
as §1

The mark [2] stands for this setting: DENV2, viral yield assay, Vero cells, MOI 0.1, 48 hours post infection.

Turning to `COc1ccc(-c2ccc3c(N)c(C(=O)Nc4ccc(F)cc4)sc3n2)cc1` [Compound 491, 3-amino-N-(4-fluorophenyl)-6-(4-methoxyphenyl)thieno[2,3-b]pyridine-2-carboxamide], the EC50 in the assay on DENV-1 (DENV1, viral yield assay) was greater than 25 µM; in assay [1] (DENV2, Vero, 48 h), less than 5 µM; with DENV-3 (DENV3, viral yield assay), 5 to 25 µM; in the assay with DENV-4 (DENV4, viral yield assay), less than 5 µM.

As to `Nc1c(C(=O)Nc2ccc(Cl)c(C(F)(F)F)c2)sc2nc(-c3ccc4c(c3)OCO4)ccc12` [Compound 600, 3-amino-6-(1,3-benzodioxol-5-yl)-N-[4-chloro-3-(trifluoromethyl)phenyl]thieno [2,3-b]pyridine-2-carboxamide], the EC50 was less than 5 µM in the assay on DENV-1 (DENV1, viral yield assay); less than 5 µM in assay [1] (setting [2]); less than 5 µM in the assay with DENV-3 (DENV3, viral yield assay); less than 5 µM in the assay with DENV-4 (DENV4, viral yield assay).

As to `O=C(O)CNc1c(C(=O)Nc2nnc(-c3ccccc3)s2)sc2nc3c(cc12)CCCCC3` [Compound 293, 2-((2-((5-phenyl-1,3,4-thiadiazol-2-yl)carbamoyl)-6,7,8,9-tetrahydro-5H-cyclohepta[b]thieno[3,2-e]pyridin-3-yl)amino)acetic acid], the concentration for a half-maximal effect (EC50) in the assay on DENV-1 (DENV1) is less than 5 µM; in assay [1] (DENV2, Vero cells), less than 5 µM; in the assay with DENV-3 (DENV3) it was less than 5 µM; in the assay on DENV-4 (DENV4) it was less than 5 µM.

`COc1cccc(-c2ccc3c(N)c(C(=O)Nc4cccc(Br)c4)sc3n2)c1` [Compound 447, 3-amino-N-(3-bromophenyl)-6-(3-methoxyphenyl)thieno[2,3-b]pyridine-2-carboxamide]: the EC50 was less than 5 µM in the assay with DENV-1 (DENV1, viral yield assay); less than 5 µM in assay [1] (setting [2]); less than 5 µM in the assay on DENV-3 (DENV3, viral yield assay); less than 5 µM with DENV-4 (DENV4, viral yield assay).

On to `Nc1c(C(=O)Nc2ccc(F)c(F)c2)sc2nc(-c3ccc(F)cc3)ccc12` [Compound 615, 3-amino-N-(3,4-difluorophenyl)-6-(4-fluorophenyl)thieno[2,3-b]pyridine-2-carboxamide], for which the EC50 in the assay with DENV-1 (DENV1, viral yield assay) was less than 5 µM; in assay [1] (setting [2]), less than 5 µM; with DENV-3 (DENV3, viral yield assay) it was less than 5 µM; with DENV-4 (DENV4, viral yield assay), less than 5 µM.

In the case of `COc1cccc(-c2ccc3c(N)c(C(=O)Nc4cccc(C)c4)sc3n2)c1` [Compound 547, 3-amino-6-(3-mehtoxyphenyl)-N-(m-tolyl)thieno[2,3-b]pyridine-2-carboxamide], the EC50 in the assay with DENV-1 (DENV1, viral yield assay) was less than 5 µM; in assay [1] (setting [2]) it was less than 5 µM; in the assay on DENV-3 (DENV3, viral yield assay), less than 5 µM; in the assay on DENV-4 (DENV4, viral yield assay) it was less than 5 µM.

As for `Nc1c(C(=O)Nc2ccc(Br)nc2)sc2nc(-c3ccc(Cl)cc3)ccc12` [Compound 336, 3-amino-N-(6-bromo-3-pyridyl)-6-(4-chlorophenyl)thieno [2,3-b]pyridine-2-carboxamide], the EC50 in the assay with DENV-1 (DENV1, viral yield assay) was less than 5 µM; in assay [1] (setting [2]) it was less than 5 µM; in the assay on DENV-3 (DENV3, viral yield assay), less than 5 µM; in the assay with DENV-4 (DENV4, viral yield assay) it was less than 5 µM.

As to `Nc1c(C(=O)Nc2ccc3ccccc3c2)sc2nc3c(cc12)CCCCC3` [Compound 365, 3-amino-N-(naphthalen-2-yl)-6,7,8,9-tetrahydro-5H-cyclohexpta[b]thieno[3,2-e] pyridine-2-carboxamide], the EC50 with DENV-1 (DENV1, viral yield assay) is 5 to 25 µM; in assay [1] (setting [2]), less than 5 µM; in the assay with DENV-3 (DENV3, viral yield assay), 5 to 25 µM; with DENV-4 (DENV4, viral yield assay), greater than 25 µM.

As for `Nc1c(C(=O)Nc2cc(Cl)ccc2Cl)sc2nc(-c3cccs3)ccc12` [Compound 433, 3-amino-N-(2,5-dichlorophenyl)-6-(2-thienyl)thieno[2,3-b]pyridine-2-carboxamide], the EC50 with DENV-1 (DENV1, viral yield assay) is less than 5 µM; in assay [1] (setting [2]), less than 5 µM; in the assay on DENV-3 (DENV3, viral yield assay), less than 5 µM; in the assay with DENV-4 (DENV4, viral yield assay) it was less than 5 µM.

Consider `COc1cccc(-c2ccc3c(N)c(C(=O)Nc4ccc(OC)cc4OC)sc3n2)c1` [Compound 512, 3-amino-N-(2,4-dimethoxyphenyl)-6-(3-methoxyphenyl)thieno[2,3-b]pyridine-2-carboxamide], for which the 50% effective concentration (EC50) with DENV-1 (DENV1, viral yield assay) is less than 5 µM; in assay [1] (setting [2]), less than 5 µM; in the assay with DENV-3 (DENV3, viral yield assay) it was less than 5 µM; in the assay with DENV-4 (DENV4, viral yield assay), less than 5 µM.

Turning to `COc1cccc(-c2ccc3c(N)c(C(=O)Nc4cccc(C(F)(F)F)c4)sc3n2)c1` [Compound 450, 3-amino-6-(3-methoxyphenyl)-N-[3-(trifluoromethyl)phenyl]thieno[2,3-b] pyridine-2-carboxamide], the concentration for a half-maximal effect (EC50) with DENV-1 (DENV1, viral yield assay) was less than 5 µM; in assay [1] (setting [2]), less than 5 µM; in the assay with DENV-3 (DENV3, viral yield assay) it was less than 5 µM; with DENV-4 (DENV4, viral yield assay), less than 5 µM.

Take `CCC(C)c1ccc(NC(=O)c2sc3nc(-c4cccc(OC)c4)ccc3c2N)cc1` (stereo not drawn) [Compound 555, 3-amino-6-(3-methoxyphenyl)-N-(4-sec-butylphenyl)thieno[2,3-b]pyridine-2-carboxamide]: the EC50 was less than 5 µM in the assay with DENV-1 (DENV1, viral yield assay); less than 5 µM in assay [1] (setting [2]); less than 5 µM with DENV-3 (DENV3, viral yield assay); less than 5 µM in the assay on DENV-4 (DENV4, viral yield assay).

As for `Nc1c(C(=O)Nc2nnc(-c3ccccc3)s2)sc2nc3c(cc12)C(F)CCCC3` (stereo not drawn) [Compound 330], the EC50 in the assay on DENV-1 (DENV1, viral yield assay) is 5 to 25 µM; in assay [1] (setting [2]) it was less than 5 µM; in the assay on DENV-3 (DENV3, viral yield assay), 5 to 25 µM; in the assay on DENV-4 (DENV4, viral yield assay), 5 to 25 µM.

Consider `Cc1ccc(-c2ccc3c(N)c(C(=O)Nc4ccc(Br)cc4)sc3n2)cc1` [Compound 485, 3-amino-N-(4-bromophenyl)-6-(p-tolyl) thieno[2,3-b]pyridine-2-carboxamide], for which the EC50 with DENV-1 (DENV1, viral yield assay) is less than 5 µM; in assay [1] (setting [2]) it was less than 5 µM; with DENV-3 (DENV3, viral yield assay) it was less than 5 µM; in the assay with DENV-4 (DENV4, viral yield assay), less than 5 µM.

As for `COc1cccc(-c2ccc3c(N)c(C(=O)Nc4ccc(Cl)c(C(F)(F)F)c4)sc3n2)c1` [Compound 498, 3-amino-N-[4-chloro-3-(trifluoromethyl)phenyl]-6-(3-methoxyphenyl)thieno [2,3-b]pyridine-2-carboxamide], the EC50 was less than 5 µM with DENV-1 (DENV1, viral yield assay); less than 5 µM in assay [1] (setting [2]); less than 5 µM with DENV-3 (DENV3, viral yield assay); less than 5 µM in the assay with DENV-4 (DENV4, viral yield assay).

For `Nc1c(C(=O)Nc2cc(Cl)cc(Cl)c2)sc2nc(-c3cccs3)ccc12` [Compound 431, 3-amino-N-(3,5-dichloropehnyl)-6-(2-thienyl)thieno[2,3-b]pyridine-2-carboxamide], the EC50 in the assay on DENV-1 (DENV1, viral yield assay) was less than 5 µM; in assay [1] (setting [2]) it was less than 5 µM; in the assay on DENV-3 (DENV3, viral yield assay), less than 5 µM; with DENV-4 (DENV4, viral yield assay), less than 5 µM.

Consider `CSc1ccc(NC(=O)c2sc3nc(-c4ccc(F)cc4)ccc3c2N)cc1` [Compound 625, 3-amino-6-(4-fluorophenyl)-N-(4-methylsulfanylphenyl)thieno[2,3-b] pyridine-2-carboxamide], for which the EC50 is less than 5 µM in the assay with DENV-1 (DENV1, viral yield assay); less than 5 µM in assay [1] (setting [2]); less than 5 µM in the assay with DENV-3 (DENV3, viral yield assay); greater than 25 µM in the assay with DENV-4 (DENV4, viral yield assay).

On to `Nc1c(C(=O)Nc2ccc(Br)cc2F)sc2nc(-c3ccc(F)cc3)ccc12` [Compound 616, 3-amino-N-(4-bromo-2-fluoro-phenyl)-6-(4-fluorophenyl)thieno[2,3-b]pyridine-2-carboxamide], for which the concentration giving a half-maximal response (EC50) with DENV-1 (DENV1, viral yield assay) is less than 5 µM; in assay [1] (setting [2]), less than 5 µM; in the assay with DENV-3 (DENV3, viral yield assay), less than 5 µM; with DENV-4 (DENV4, viral yield assay), less than 5 µM.

In the case of `O=C(Nc1c(C(=O)Nc2nnc(-c3ccccc3)s2)sc2nc3c(cc12)CCCCC3)c1ccccn1` [Compound 360, N-(5-phenyl-1,3,4-thiadiazol-2-yl)-3-(picolinamido)-6,7,8,9-tetrahydro-5H-cyclohepta[b]thieno[3,2-e]pyridine-2-carboxamide], the EC50 is greater than 25 µM in the assay on DENV-1 (DENV1); less than 5 µM in assay [1] (DENV2, Vero cells); greater than 25 µM with DENV-3 (DENV3); less than 5 µM in the assay with DENV-4 (DENV4).

`Nc1c(C(=O)Nc2cccc(C(F)(F)F)c2)sc2nc3c(cc12)CCCCC3` [Compound 368, 3-amino-N-(3-(trifluoromethyl)phenyl)-6,7,8,9-tetrahydro-5H-cyclohepta[b]thieno [3,2-e]pyridine-2-carboxamide]: the EC50 in the assay with DENV-1 (DENV1, viral yield assay) is less than 5 µM; in assay [1] (setting [2]), less than 5 µM; with DENV-3 (DENV3, viral yield assay) it was less than 5 µM; in the assay on DENV-4 (DENV4, viral yield assay), less than 5 µM.

Turning to `CCOC(=O)c1ccc(NC(=O)c2sc3nc(-c4ccc(C)cc4)ccc3c2N)cc1` [Compound 638, ethyl 4-[[3-amino-6-(p-tolyl)thieno [2,3-b]pyridine-2-carbonyl]amino] benzoate], the EC50 is less than 5 µM in the assay with DENV-1 (DENV1, viral yield assay); less than 5 µM in assay [1] (setting [2]); less than 5 µM with DENV-3 (DENV3, viral yield assay); less than 5 µM in the assay on DENV-4 (DENV4, viral yield assay).

Consider `Nc1c(C(=O)Nc2ccc(Br)cc2)sc2nc(-c3ccco3)ccc12` [Compound 439, 3-amino-N-(4-bromophenyl)-6-(2-furyl)thieno[2,3-b]pyridine-2-carboxamide], for which the EC50 in the assay with DENV-1 (DENV1, viral yield assay) was less than 5 µM; in assay [1] (DENV2, Vero, 48 h) it was less than 5 µM; in the assay on DENV-3 (DENV3, viral yield assay) it was less than 5 µM; in the assay on DENV-4 (DENV4, viral yield assay), less than 5 µM.

Regarding `Nc1c(C(=O)Nc2ccc(Cl)cc2)sc2nc(-c3ccc(F)cc3)ccc12` [Compound 620, 3-amino-N-(4-chlorophenyl)-6-(4-fluorophenyl)thieno[2,3-b]pyridine-2-carboxamide], the EC50 with DENV-1 (DENV1, viral yield assay) was less than 5 µM; in assay [1] (setting [2]), less than 5 µM; in the assay with DENV-3 (DENV3, viral yield assay), less than 5 µM; in the assay on DENV-4 (DENV4, viral yield assay), less than 5 µM.

Take `COc1ccc(OC)c(NC(=O)c2sc3nc(-c4cccs4)ccc3c2N)c1` [Compound 441, 3-amino-N-(2,5-dimethoxyphenyl)-6-(2-thienyl)thieno[2,3-b]pyridine-2-carboxamide]: the EC50 is less than 5 µM with DENV-1 (DENV1, viral yield assay); less than 5 µM in assay [1] (DENV2, Vero, 48 h); less than 5 µM in the assay with DENV-3 (DENV3, viral yield assay); less than 5 µM in the assay on DENV-4 (DENV4, viral yield assay).

Broadly, the EC50 is the midpoint of the concentration-response curve.
